# Source: ChEMBL document CHEMBL5380773, “Novel Feleucin-K3-Derived Peptides Modified with Sulfono-γ-AA Building Blocks Targeting Pseudomonas aeruginosa and Methicillin-Resistant Staphylococcus aureus Infections” (J Med Chem, 2023)
# The source made the active and inactive calls. No cut-off for these calls is given here. Numbered stars: 1 amine (or outer) side, 2 acyl side, 3 side chain; on linkers, the order of the positions; unused ones are H or OH. Square brackets hold non-standard residues; d marks the D form. Peptide text beside a SMILES is read from it. * marks the point of attachment. X26 = O=C(O)c1cc(NC(=S)c2ccc(S(=O)(=O)*)cc2)ccc1-c1c2ccc(=O)cc-2oc2cc(O)ccc12; Benzenesulfonyl(2-NO2) = O=[N+]([O-])c1ccccc1S(=O)(=O)*; X7 = NC(=O)CN(C[C@H](Cc1ccccc1)N*)S(=O)(=O)c1cccc(Cl)c1; X16 = CC(C)C[C@@H](CN(CC(N)=O)S(=O)(=O)c1ccc(Cl)cc1)N*; X27 = Cc1ccc(S(=O)(=O)N(CC(N)=O)C[C@H](CC(C)C)N*)cc1; X8 = CC(C)C[C@@H](CN(CC(N)=O)S(=O)(=O)c1ccc(I)cc1)N*; X5 = CC(C)c1cc(C(C)C)c(S(=O)(=O)*)c(C(C)C)c1; X3 = N[C@@H](Cc1ccccc1)CN(CC(=O)[*:2])[*:1]; X2 = CC(C)C[C@H](N)CN(CC(=O)[*:2])[*:1]; Tos = Cc1ccc(S(=O)(=O)*)cc1
# How the values were obtained:
# Erythrocyte = test: Hemolytic activity against mouse red blood cells incubated for 1 hr; type: toxicity, cell-based
# [1] = Stability in mouse serum assessed as half life incubated for 6 hrs by HPLC analysis; type: ADME, cell-free
# Pseudomonas aeruginosa [2] = test: Induction of resistant development in Pseudomonas aeruginosa ATCC 27853 assessed as fold increase in MIC after 20 days; type: functional; conditions: time 20 day
# Pseudomonas aeruginosa [3] = test: Antimicrobial activity against multidrug resistant Pseudomonas aeruginosa ATCC 27853 assessed as fold increase incubated for 18 hrs by microdilution method; type: functional
# Staphylococcus aureus [4] = test: Antimicrobial activity against methicillin resistant Staphylococcus aureus ATCC 33591 infected in BALB/c mouse assessed as reduction in sessile bacteria attached on catheters surface at 0.25 to 1 mg/kg infected with bacteria for 2 hrs prior to compound addition on 1, 24 and 48 hrs and measured after 72 hrs […]; type: functional, organism-based; conditions: dose 0.25-1 mg/kg
# Staphylococcus aureus [5] = test: Induction of resistant development in Staphylococcus aureus ATCC 25923 assessed as fold increase by serial passage assay; type: functional
# Staphylococcus aureus [6] = test: Induction of resistant development in methicillin resistant Staphylococcus aureus ATCC 33591 assessed as fold increase by serial passage assay; type: functional
# Cell membrane = test: Induction of membrane disruption in Pseudomonas aeruginosa ATCC 27853 after 30 mins by confocal laser scanning microscopic analysis; type: subcellular
compound,measurement,setting,value
H-FLKLLKKLL-NH2,MHC,Erythrocyte,256 µg/mL
same,half-life,[1],1.28 h
C[C@H]1[C@H](NC(=O)/C(=N\OC(C)(C)C(=O)O)c2csc(N)n2)C(=O)N1S(=O)(=O)O [AZTREONAM],fold change (FC),Pseudomonas aeruginosa [2],32
same,fold change (FC),Pseudomonas aeruginosa [3],2
CN[C@H](CC(C)C)C(=O)N[C@H]1C(=O)N[C@@H](CC(N)=O)C(=O)N[C@H]2C(=O)N[C@H]3C(=O)N[C@H](C(=O)N[C@H](C(=O)O)c4cc(O)cc(O)c4-c4cc3ccc4O)[C@H](O)c3ccc(c(Cl)c3)Oc3cc2cc(c3O[C@@H]2O[C@H](CO)[C@@H](O)[C@H](O)[C@H]2O[C@H]2C[C@](C)(N)[C@H](O)[C@H](C)O2)Oc2ccc(cc2Cl)[C@H]1O,Activity,Staphylococcus aureus [4],Active
CC1(C)S[C@@H]2[C@H](NC(=O)[C@H](N)c3ccc(O)cc3)C(=O)N2[C@H]1C(=O)O [AMOXICILLIN],fold change (FC),Staphylococcus aureus [5],4096
same,fold change (FC),Staphylococcus aureus [6],4096
CC(C)C[C@H](N)CN(CC(=O)N[C@@H](CCCCN)C(=O)N[C@@H](CC(C)C)C(=O)N[C@@H](CC(C)C)C(=O)N[C@@H](CCCCN)C(=O)N[C@@H](CCCCN)C(=O)N[C@@H](CC(C)C)C(=O)N[C@@H](CC(C)C)C(N)=O)S(=O)(=O)c1ccc(C(=S)Nc2ccc(-c3c4ccc(=O)cc-4oc4cc(O)ccc34)c(C(=O)O)c2)cc1 (X26-[X2]KLLKKLL-NH2),Activity,Cell membrane,Active
CC(C)C[C@@H](CN(CC(N)=O)S(=O)(=O)c1ccc(Cl)cc1)NC(=O)[C@H](CCCCN)NC(=O)[C@H](CCCCN)NC(=O)[C@H](CC(C)C)NC(=O)[C@H](CC(C)C)NC(=O)[C@H](CCCCN)NC(=O)[C@H](CC(C)C)NC(=O)[C@@H](N)Cc1ccccc1 (H-FLKLLKK-X16),MHC,Erythrocyte,256 µg/mL
Cc1ccc(S(=O)(=O)N(CC(=O)N[C@@H](CCCCN)C(=O)N[C@@H](CC(C)C)C(=O)N[C@@H](CC(C)C)C(=O)N[C@@H](CCCCN)C(=O)N[C@@H](CCCCN)C(=O)N[C@@H](CC(C)C)C(=O)N[C@@H](CC(C)C)C(N)=O)C[C@@H](N)Cc2ccccc2)cc1 (Tos-[X3]KLLKKLL-NH2),MHC,Erythrocyte,256 µg/mL
same,half-life,[1],6.97 h
CC(C)C[C@H](N)CN(CC(=O)N[C@@H](CCCCN)C(=O)N[C@@H](CC(C)C)C(=O)N[C@@H](CC(C)C)C(=O)N[C@@H](CCCCN)C(=O)N[C@@H](CCCCN)C(=O)N[C@@H](CC(C)C)C(=O)N[C@@H](CC(C)C)C(N)=O)S(=O)(=O)c1ccccc1[N+](=O)[O-] ({Benzenesulfonyl(2-NO2)}-[X2]KLLKKLL-NH2),MHC,Erythrocyte,256 µg/mL
Cc1ccc(S(=O)(=O)N(CC(=O)N[C@@H](CCCCN)C(=O)N[C@@H](CC(C)C)C(=O)N[C@@H](CC(C)C)C(=O)N[C@@H](CCCCN)C(=O)N[C@@H](CCCCN)C(=O)N[C@@H](CC(C)C)C(=O)N[C@@H](CC(C)C)C(N)=O)C[C@@H](N)CC(C)C)cc1 (Tos-[X2]KLLKKLL-NH2),MHC,Erythrocyte,32 µg/mL
CC(C)C[C@H](NC(=O)[C@H](CC(C)C)NC(=O)[C@H](CCCCN)NC(=O)[C@H](CCCCN)NC(=O)[C@H](CC(C)C)NC(=O)[C@H](CC(C)C)NC(=O)[C@H](CCCCN)NC(=O)CN(C[C@@H](N)Cc1ccccc1)S(=O)(=O)c1c(C(C)C)cc(C(C)C)cc1C(C)C)C(N)=O (X5-[X3]KLLKKLL-NH2),MHC,Erythrocyte,16 µg/mL
CC(C)C[C@H](NC(=O)[C@H](CC(C)C)NC(=O)[C@H](CCCCN)NC(=O)[C@H](CC(C)C)NC(=O)[C@@H](N)Cc1ccccc1)C(=O)N[C@@H](CCCCN)C(=O)N[C@@H](CCCCN)C(=O)N[C@@H](Cc1ccccc1)CN(CC(N)=O)S(=O)(=O)c1cccc(Cl)c1 (H-FLKLLKK-X7),MHC,Erythrocyte,256 µg/mL
C[C@@H](O)[C@H]1C(=O)N2C(C(=O)O)=C(SCCNC=N)C[C@H]12 [IMIPENEM ANHYDROUS],fold change (FC),Pseudomonas aeruginosa [2],16
same,fold change (FC),Pseudomonas aeruginosa [3],1
CC(C)C[C@@H](CN(CC(N)=O)S(=O)(=O)c1ccc(I)cc1)NC(=O)[C@H](CCCCN)NC(=O)[C@H](CCCCN)NC(=O)[C@H](CC(C)C)NC(=O)[C@H](CC(C)C)NC(=O)[C@H](CCCCN)NC(=O)[C@H](CC(C)C)NC(=O)[C@@H](N)Cc1ccccc1 (H-FLKLLKK-X8),MHC,Erythrocyte,256 µg/mL
Cc1ccc(S(=O)(=O)N(CC(N)=O)C[C@H](CC(C)C)NC(=O)[C@H](CCCCN)NC(=O)[C@H](CCCCN)NC(=O)[C@H](CC(C)C)NC(=O)[C@H](CC(C)C)NC(=O)[C@H](CCCCN)NC(=O)[C@H](CC(C)C)NC(=O)[C@@H](N)Cc2ccccc2)cc1 (H-FLKLLKK-X27),MHC,Erythrocyte,256 µg/mL
CC(C)(O/N=C(\C(=O)N[C@@H]1C(=O)N2C(C(=O)[O-])=C(C[n+]3ccccc3)CS[C@H]12)c1csc(N)n1)C(=O)O [CEFTAZIDIME],fold change (FC),Pseudomonas aeruginosa [2],256
